This assay has as its target T1, Human JNK 3 (Homo sapiens, UniProt P53779).
T1 construct: made in house; host or cells: Escherichia coli
Put plainly: Determination of JNK 3 Inhibition. Particulars: 50% inhibitory concentration on the enzymatic activity of JNK; GST-JNK 3, substrate GST-c-Jun, 3.33 μM of ATP, 30 minutes. Format: biochemical. How it is done: Human JNK 3 was expressed as a fusion protein (GST-JNK 3) with glutathione S-transferase (GST) in Escherichia coli and was purified using glutathione Sepharose 4B beads. The amino acid sequence 1-169 of c-Jun was […] as a fusion protein (GST-c-Jun) with GST in Escherichia coli, was purified using glutathione Sepharose 4B beads and was used as a substrate. A test compound was diluted with 100% dimethyl sulfoxide into 10 mM and was then further diluted with 10% aqueous dimethyl sulfoxide solution to yield a dilution series. To each well of 96-well OPTI plate (available from Packard) were placed 20 μl of the diluted compound, 30 μl of a substrate solution (1.2 μg of GST-c-Jun, […], 0.2 μCi of [γ-^33P]ATP, 25 mM of HEPES pH=7.5, 10 mM of magnesium acetate, and 3.33 μM of ATP), and 50 μl of an enzyme solution (0.04 μg of GST-JNK 3, 25 mM of HEPES pH=7.5, and 10 mM magnesium acetate) up to 100 μl, and the mixture was allowed to react for 30 minutes. After terminating the reaction by adding 100 μl of a reaction terminator (80 mM ATP, 50 mg/ml glutathione SPA beads (available from Amersham Pharmacia Biotech)), the reaction mixture was shaken for 30 minutes. The mixture was centrifuged at room temperature at 1000×g for 5 minutes, and the emission intensity thereof was determined on a TopCount™ illuminator (available from Packard). The activity is expressed by the 50% inhibitory concentration on the enzymatic activity of JNK, i.e., IC50 (nM).

T1 sequence (P53779 whole entry): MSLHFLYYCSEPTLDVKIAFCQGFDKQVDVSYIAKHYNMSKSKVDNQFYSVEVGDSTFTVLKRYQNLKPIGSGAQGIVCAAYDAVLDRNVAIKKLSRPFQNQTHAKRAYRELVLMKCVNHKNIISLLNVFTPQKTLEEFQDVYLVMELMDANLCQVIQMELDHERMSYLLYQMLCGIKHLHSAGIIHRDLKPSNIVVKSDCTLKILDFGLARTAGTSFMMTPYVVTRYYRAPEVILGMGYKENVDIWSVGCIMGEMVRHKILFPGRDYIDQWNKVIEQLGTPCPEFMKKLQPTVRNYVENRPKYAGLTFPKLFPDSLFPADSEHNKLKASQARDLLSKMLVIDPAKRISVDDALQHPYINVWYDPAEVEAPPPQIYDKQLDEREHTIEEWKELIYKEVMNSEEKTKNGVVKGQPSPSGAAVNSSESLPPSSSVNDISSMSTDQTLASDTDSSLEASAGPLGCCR

One may read the IC50 as the concentration that inhibits the measured activity by half. A lower IC50 goes with inhibition by little substance. The compound `O=C(Cc1cccs1)Nc1ccc2[nH]nc(-c3cccc(F)c3)c2c1` [Example I-16, N1-[3-(3-Fluorophenyl)-1H-5-indazolyl]-2-(2-thienyl)acetamide] returned an IC50 of 51 nM. For `O=C(c1ccccc1)c1ccc2[nH]nc(-c3cccc(F)c3)c2c1` [Example I-26, [3-(3-Fluorophenyl)-1H-5-indazolyl](phenyl)methanone] the value was 113 nM.

Take `O=C(Nc1ccc2[nH]nc(-c3cc4ccccc4o3)c2c1)c1ccco1` [Example I-48, N2-(3-Benzo[b]furan-2-yl-1H-5-indazolyl)-2-furamide]: the IC50 amounted to 109 nM. `O=C(Nc1ccc2[nH]nc(-c3cc4ccccc4s3)c2c1)C1CCOC1` (centres unmarked) [Example I-55, N3-(3-Benzo[b]thiophen-2-yl-1H-5-indazolyl)tetrahydro-3-furancarboxamide] showed a half-inhibitory concentration (IC50) of 52 nM. To `CS(=O)(=O)Nc1ccc2[nH]nc(-c3ccc4ccccc4c3)c2c1` [Example I-94, N-[3-(2-Naphthyl)-1H-5-indazolyl]methanesulfonamide] belongs 163 nM.

Compound `O=C(Nc1ccc2[nH]nc(-c3ccc4ccccc4c3)c2c1)C1CCNCC1` [Example I-104, N4-[3-(2-Naphthyl)-1H-5-indazolyl]-4-piperidinecarboxamide] had an IC50 of 55 nM. This IC50 lies about 3-fold lower than the previous one. To `CC(=O)c1cccc(-c2n[nH]c3ccc(C(=O)N[C@@H](C)C(N)=O)cc23)c1` [Example I-132, N5-[(1S)-2-Amino-1-methyl-2-oxoethyl]-3-(3-acetylphenyl)-1H-5-indazolecarboxamide] belongs 197 nM. To `O=C(NCCCN1CCCC1=O)c1ccc2[nH]nc(-c3cc4ccccc4s3)c2c1` [Example I-137, N5-[3-(2-Oxotetrahydro-1H-1-pyrrolyl)propyl]-3-benzo[b]thiophen-2-yl-1H-5-indazolecarboxamide] belongs 54 nM; to `O=C(NC1CC1)c1ccc2[nH]nc(-c3cccc(F)c3)c2c1` [Example I-143, N5-Cyclopropyl-3-(3-fluorophenyl)-1H-5-indazolecarboxamide], 221 nM. `O=C(Cc1ccsc1)Nc1ccc2[nH]nc(-c3cn4ccccc4n3)c2c1` [Example I-163, N1-(3-Imidazo[1,2-a]pyridin-2-yl-1H-5-indazolyl)-2-(3-thienyl)acetamide] came in with an IC50 of 80 nM. Compound `COc1c(C(=O)NCc2ccco2)ccc2[nH]nc(-c3cccc(F)c3)c12` [Example II-5, 3-(3-Fluoro-phenyl)-4-methoxy-1H-indazole-5-carboxylic acid (furan-2-ylmethyl)-amide] gave an IC50 of 100 nM.

`COc1c(C(=O)NCC2CC2)ccc2[nH]nc(-c3cc4ccccc4o3)c12` [Example II-93, 3-Benzo[b]furan-2-yl-4-methoxy-1H-indazole-5-carboxylic acid cyclopropylmethyl-amide] gave an IC50 of 137 nM. To `C[C@H](NC(=O)c1ccc2[nH]nc(-c3cc4ccccc4s3)c2c1F)C(N)=O` [Example II-126] belongs 143 nM; to `O=C(Nc1cc2c(-c3ccc4ccccc4c3)n[nH]c2cc1F)C1CC1` [Example II-184, Cyclopropanecarboxylic acid {6-fluoro-3-naphthalen-2-yl-1H-indazol-5-yl}-amide], 86 nM.

In the case of `O=C(Cc1cccs1)Nc1cc2c(-c3ccc4ccccc4c3)n[nH]c2cc1F` [Example II-189, N-(6-Fluoro-3-naphthalen-2-yl-1H-indazol-5-yl)-2-thiophen-2-yl-acetamide], the IC50 stood at 194 nM. Regarding `COc1cccc(C(=O)NCc2cc3c(-c4ccc5ccccc5c4)n[nH]c3cc2F)c1` [Example II-208, N-{6-Fluoro-3-naphthalen-2-yl-1H-indazol-5-ylmethyl}-3-methoxy-benzamide], the midpoint of inhibition, the IC50, lay at 143 nM. Consider `CS(=O)(=O)Nc1cc2c(-c3cc4ccccc4s3)n[nH]c2cc1F` [Example II-218, N-(3-Benzo[b]thiophen-2-yl-6-fluoro-1H-indazol-5-yl)-methanesulfonamide], for which the IC50 came to 215 nM. For the compound `O=C(N[C@@H]1CCOC1=O)c1cc(F)c2[nH]nc(-c3ccc4ccccc4c3)c2c1` [Example II-259, 7-Fluoro-3-naphthalen-2-yl-1H-indazole-5-carboxylic acid [(3R)-2-oxo-tetrahydrofuran-3-yl]amide], the IC50 came out at 148 nM.

On to `CCCOc1c(C(=O)N[C@H](CO)C(C)C)ccc2[nH]nc(-c3cc4ccccc4o3)c12` [Example II-281, 3-Benzo[b]furan-2-yl-4-propoxy-1H-indazole-5-carboxylic acid ((1S)-1-hydroxymethyl-2-methyl-propyl)-amide], for which the midpoint of inhibition, the IC50, lay at 84 nM. `O=C(Cc1ccsc1)Nc1cc(F)c2[nH]nc(-c3cccc(F)c3)c2c1` [Example II-288, N-[7-Fluoro-3-(3-fluorophenyl)-1H-indazol-5-yl]-2-thiophen-3-ylacetamide] had an IC50 of 71 nM.

For the origin of these results see patent US7776890B2, “1H-indazole compounds” (Eisai R&D Management Co., Ltd., priority 2005, dated 2010).
